Our source for the EC50 values is patent publication US9428456B2, “1-[m-carboxamido(hetero)aryl-methyl]-heterocyclyl-carboxamide derivatives” (Actelion Pharmaceuticals Ltd., priority 2012, dated 2016).

Each structure is given as a SMILES string.

Sequence of CXCR7 (P25106 whole entry, the tested form may be a part): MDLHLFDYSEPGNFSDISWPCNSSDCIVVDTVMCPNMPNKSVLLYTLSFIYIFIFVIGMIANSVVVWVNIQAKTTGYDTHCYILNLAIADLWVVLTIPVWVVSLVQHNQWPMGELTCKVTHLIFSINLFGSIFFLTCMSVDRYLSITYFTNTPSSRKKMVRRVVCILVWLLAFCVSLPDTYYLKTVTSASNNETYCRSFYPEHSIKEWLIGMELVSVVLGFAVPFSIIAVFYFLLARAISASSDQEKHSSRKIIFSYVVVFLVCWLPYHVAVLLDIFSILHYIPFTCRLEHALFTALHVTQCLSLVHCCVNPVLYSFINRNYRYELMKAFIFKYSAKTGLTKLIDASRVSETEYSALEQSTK
Sequence of CXCR7 (P32121 whole entry partner, the tested form may be a part): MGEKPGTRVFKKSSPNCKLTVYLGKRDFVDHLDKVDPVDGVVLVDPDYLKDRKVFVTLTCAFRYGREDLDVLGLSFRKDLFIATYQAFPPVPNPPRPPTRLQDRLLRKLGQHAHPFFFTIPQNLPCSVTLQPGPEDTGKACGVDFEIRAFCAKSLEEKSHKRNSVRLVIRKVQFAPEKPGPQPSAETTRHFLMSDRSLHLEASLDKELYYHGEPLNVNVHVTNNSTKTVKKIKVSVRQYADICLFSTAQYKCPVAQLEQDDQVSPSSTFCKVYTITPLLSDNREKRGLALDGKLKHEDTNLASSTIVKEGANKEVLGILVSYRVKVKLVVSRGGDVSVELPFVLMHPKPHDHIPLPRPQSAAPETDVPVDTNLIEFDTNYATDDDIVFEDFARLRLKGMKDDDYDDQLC

The assay deals with CXCR7 (Homo sapiens (Human), UniProt P25106). Briefly: PathHunter CHO-K1 CXCR7 b-arrestin assay (agonistic activity). The class given is cell-based. Conditions: PathHunter CHO-K1 CXCR7 b-arrestin cell line. An outline of the steps:
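CHO-K1 cells co-expressing ProLink-tagged CXCR7 and EA-fused β-arrestin 2 (enzyme fragment complementation); compounds added in HBSS/20 mM HEPES/0.2% BSA after 3–4 h in OPTIMEM, 90 min at 37 °C. Chemiluminescent β-gal signal read after 1 h detection at room temperature; EC50 reported as geometric mean of several measurements.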
On to `O=C(Nc1cccc(CN2CCC(C(=O)NC3CCCCC3)CC2)c1)C1CC1` [Example 1.149], for which the EC50 is 81 nM. This counts as double-digit nanomolar.

Turning to `O=C(Nc1cccc(CN2CCC(C(=O)NC3CCCCC3)CC2)c1)C1CCC1` [Example 1.150], the response was half-maximal at 25 nM (EC50). On to `O=C(Nc1cccc(CN2CCC(C(=O)NC3CCCCC3)CC2)c1)C1CCCCC1` [Example 1.151], for which the EC50 was 10 nM. Under `O=C(Nc1cccc(CN2CCC(C(=O)NC3CCCCC3)CC2)c1)C1CCCCCC1` [Example 1.152] stands 10 nM; under `O=C(Nc1cccc(CN2CCC(C(=O)NC3CCCCC3)CC2)c1)c1ccc(C(F)(F)C(F)(F)F)cc1` [Example 1.153], 10 nM. Under `CCc1cncc(C(=O)Nc2cccc(CN3CCC(C(=O)NC4CCCCC4)CC3)c2)c1` [Example 1.154] stands 2 nM. Under `O=C(Nc1cccc(CN2CCC(C(=O)NC3CCCCC3)CC2)c1)c1cc(C(F)(F)F)ccn1` [Example 1.155] stands 12 nM. In the case of `O=C(Nc1cccc(CN2CCC(C(=O)NC3CCCCC3)CC2)c1)c1ccc(F)cc1` [Example 1.156], the EC50 was 2 nM.

`O=C(Nc1cc(CN2CCC(C(=O)NC3CCCCC3)CC2)ccc1Cl)c1ccncn1` [Example 1.157] registered an EC50 of 2 nM. For the molecule `Cc1ccc(C(=O)Nc2cc(CN3CCC(C(=O)NC4CCCCC4)CC3)ccc2Cl)s1` [Example 1.158], the EC50 was 14 nM. Under `COc1ccc(C(=O)Nc2cc(CN3CCC(C(=O)NC4CCCCC4)CC3)ccc2Cl)cc1` [Example 1.159] stands 14 nM. Then `O=C(Nc1cc(CN2CCC(C(=O)NC3CCCCC3)CC2)ccc1Cl)c1ccc(Cl)cc1` [Example 1.160], with 5 nM.

The molecule `O=C(Nc1cccc(CN2CCC(C(=O)NC3CCCCC3)CC2)c1Cl)c1ccc(Cl)cc1` [Example 1.162] displayed an EC50 of 2780 nM. Against the preceding molecule, the EC50 is about 560-fold higher. Then `Cc1ccc(C(=O)Nc2cccc(CN3CCC(C(=O)NC4CCCCC4)CC3)c2Cl)s1` [Example 1.163], with 386 nM; and `CC(c1cccc(NC(=O)c2ccc(Cl)cc2)c1)N1CCC(C(=O)NC2CCCCC2)CC1` (stereo not drawn) [Example 1.164], with 8 nM; and `CC(c1cccc(NC(=O)c2ccccc2)c1)N1CCC(C(=O)NC2CCCCC2)CC1` (stereo not drawn) [Example 1.165], with 23 nM. In turn, `CC(c1cccc(NC(=O)c2ccc(F)cc2)c1)N1CCC(C(=O)NC2CCCCC2)CC1` (stereo not drawn) [Example 1.166] came in with an EC50 of 10 nM.

`COc1ccc(C(=O)Nc2cccc(C(C)N3CCC(C(=O)NC4CCCCC4)CC3)c2)cc1` (stereo not drawn) [Example 1.167] returned an EC50 of 25 nM. This EC50 lies about 2.5-fold higher than the previous one. Then `O=C(Nc1cccc(CN2CCC(C(=O)NC3CC3)CC2)c1)c1ccc(F)cc1` [Example 1.199], with 3 nM; and `O=C(Nc1cccc(CN2CCC(C(=O)NC3CC3)CC2)c1)c1cc(Cl)ccn1` [Example 1.200], with 16 nM; and `Cc1cccc(C(=O)Nc2cccc(CN3CCC(C(=O)NC4CC4)CC3)c2)n1` [Example 1.201], with 3 nM.

`Cc1cc(C(=O)Nc2cccc(CN3CCC(C(=O)NC4CC4)CC3)c2)ccn1` [Example 1.203] gave an EC50 of 56 nM. Then `O=C(Nc1cccc(CN2CCC(C(=O)NC3CC3)CC2)c1)c1cncc(F)c1` [Example 1.204], with 47 nM; and `O=C(Nc1cccc(CN2CCC(C(=O)NC3CC3)CC2)c1)c1ccc(F)cn1` [Example 1.205], with 2 nM. The molecule `O=C(Nc1cccc(CN2CCC(C(=O)NC3CCCC3)CC2)c1)c1ccc(F)cc1` [Example 1.206] displayed an EC50 of 0.9 nM. Compared with the last molecule, the EC50 is about 2.2-fold lower.

Molecule `O=C(Nc1cccc(CN2CCC(C(=O)NC3CCCC3)CC2)c1)c1ccc(F)cn1` [Example 1.207] had an EC50 of 0.8 nM. The EC50 values of the last two molecules are within 1.5-fold of each other. `O=C(Nc1cccc(CN2CCC(C(=O)NC3CCCC3)CC2)c1)c1cccc(C(F)(F)F)n1` [Example 1.208]: the EC50 was 0.6 nM. Under `O=C(Nc1cccc(CN2CCC(C(=O)NC3CCCC3)CC2)c1)c1cncc(Cl)c1` [Example 1.209] stands 1 nM. Under `O=C(Nc1cccc(CN2CCC(C(=O)NC3CCCC3)CC2)c1)c1ccc(C(F)(F)F)cn1` [Example 1.210] stands 0.6 nM. Under `O=C(Nc1cccc(CN2CCC(C(=O)NC3CCCC3)CC2)c1)c1cnc2ccccc2c1` [Example 1.211] stands 3 nM. `O=C(Nc1cccc(CN2CCC(C(=O)NC3CCCC3)CC2)c1)c1cncc(C(F)(F)F)c1` [Example 1.212] gave an EC50 of 2 nM.

The molecule `O=C(Nc1cccc(CN2CCC(C(=O)NC3CCCC3)CC2)c1)c1ccc2ncccc2c1` [Example 1.213] registered an EC50 of 3 nM. Under `O=C(Nc1cccc(CN2CCC(C(=O)NC3CCCC3)CC2)c1)c1cccnc1C(F)(F)F` [Example 1.214] stands 109 nM; under `O=C(Nc1cccc(CN2CCC(C(=O)NC3CCCC3)CC2)c1)c1cncc(F)c1` [Example 1.215], 2 nM. Under `O=C(Nc1cccc(CN2CCC(C(=O)NC3CCCC3)CC2)c1)c1cc(C(F)(F)F)ccn1` [Example 1.216] stands 7 nM; under `O=C(Nc1ccc(Cl)c(CN2CCC(C(=O)NC3CCCC3)CC2)c1)c1ccccc1` [Example 1.217], 0.4 nM. Under `O=C(Nc1ccc(Cl)c(CN2CCC(C(=O)NC3CCCC3)CC2)c1)c1cccc(C(F)(F)F)n1` [Example 1.218] stands 2 nM; under `O=C(Nc1ccc(Cl)c(CN2CCC(C(=O)NC3CCCC3)CC2)c1)c1ccc(F)cc1` [Example 1.219], 0.9 nM; under `O=C(Nc1ccc(Cl)c(CN2CCC(C(=O)NC3CCCC3)CC2)c1)c1ccc(C(F)(F)F)cn1` [Example 1.220], 1 nM. In turn, `O=C(Nc1ccc(Cl)c(CN2CCC(C(=O)NC3CCCC3)CC2)c1)c1ccc2ncccc2c1` [Example 1.221] displayed an EC50 of 1 nM. As to `O=C(Nc1ccc(Cl)c(CN2CCC(C(=O)NC3CCCC3)CC2)c1)c1cnc2ccccc2c1` [Example 1.222], the concentration giving a half-maximal response (EC50) was found to be 3 nM. Under `CC(C)(C)NC(=O)C1CCN(Cc2cccc(NC(=O)c3ccc(F)cc3)c2)CC1` [Example 1.223] stands 0.5 nM. Under `O=C(Nc1ccc(Cl)c(CN2CCC(C(=O)NC3CCCC3)CC2)c1)c1ccc(F)cn1` [Example 1.224] stands 0.4 nM; under `O=C(Nc1ccc(Cl)c(CN2CCC(C(=O)NC3CCCC3)CC2)c1)c1cncc(C(F)(F)F)c1` [Example 1.225], 0.8 nM.

`Cc1cncc(C(=O)Nc2ccc(Cl)c(CN3CCC(C(=O)NC4CCCC4)CC3)c2)c1` [Example 1.226] gave an EC50 of 2 nM.

For the molecule `CC(C)(C)NC(=O)C1CCN(Cc2cccc(NC(=O)c3cccc(C(F)(F)F)n3)c2)CC1` [Example 1.228], the EC50 was 1 nM. This EC50 is about 2-fold lower than that of the molecule before. On to `CC(C)(C)NC(=O)C1CCN(Cc2cccc(NC(=O)c3ccc(C(F)(F)F)cn3)c2)CC1` [Example 1.229], for which the EC50 turned out to be 0.5 nM. Under `CC(C)(C)NC(=O)C1CCN(Cc2cccc(NC(=O)c3cncc(C(F)(F)F)c3)c2)CC1` [Example 1.230] stands 1 nM. Then `CC(C)(C)NC(=O)C1CCN(Cc2cccc(NC(=O)c3cccnc3C(F)(F)F)c2)CC1` [Example 1.231], with 99 nM; and `CC(C)(C)NC(=O)C1CCN(Cc2cccc(NC(=O)c3cnc4ccccc4n3)c2)CC1` [Example 1.232], with 3 nM; and `CC(C)(C)NC(=O)C1CCN(Cc2cccc(NC(=O)c3cnc4ccccc4c3)c2)CC1` [Example 1.233], with 2 nM. Take `CC(C)(C)NC(=O)C1CCN(Cc2cccc(NC(=O)c3ccc4cnccc4n3)c2)CC1` [Example 1.234]: the EC50 turned out to be 2 nM. This lies in the single-digit nanomolar range. Under `CC(C)(C)NC(=O)C1CCN(Cc2cccc(NC(=O)c3ccc4ccccc4n3)c2)CC1` [Example 1.235] stands 0.9 nM; under `CC(C)(C)NC(=O)C1CCN(Cc2cccc(NC(=O)c3cnc4cc(Cl)ccc4c3)c2)CC1` [Example 1.236], 5 nM. Then `CC(C)(C)NC(=O)C1CCN(Cc2cccc(NC(=O)c3cccc(C(F)(F)F)c3)c2)CC1` [Example 1.237], with 4 nM; and `CC(C)(C)NC(=O)C1CCN(Cc2cccc(NC(=O)c3ccc(C(F)(F)F)cc3)c2)CC1` [Example 1.238], with 4 nM; and `CC(C)(C)NC(=O)C1CCN(Cc2cccc(NC(=O)c3ccccc3C(F)(F)F)c2)CC1` [Example 1.239], with 17 nM. Then `CC(C)(C)NC(=O)C1CCN(Cc2cccc(NC(=O)c3cncc(C4CC4)c3)c2)CC1` [Example 1.240], with 3 nM. Consider `CCc1cncc(C(=O)Nc2cccc(CN3CCC(C(=O)NC(C)(C)C)CC3)c2)c1` [Example 1.241], for which the EC50 was 4 nM. Under `CC(C)(C)NC(=O)C1CCN(Cc2cccc(NC(=O)c3cc(C(F)(F)F)ccn3)c2)CC1` [Example 1.242] stands 6 nM; under `CC(C)(C)NC(=O)C1CCN(Cc2cccc(NC(=O)Cc3ccc(Cl)cc3Cl)c2)CC1` [Example 1.244], 5 nM; under `CC(C)(C)NC(=O)C1CCN(Cc2cccc(NC(=O)Cc3c(Cl)cccc3Cl)c2)CC1` [Example 1.245], 1 nM.

`CC(C)(C)NC(=O)C1CCN(Cc2cccc(NC(=O)Cc3cccc(Cl)c3Cl)c2)CC1` [Example 1.246] came in with an EC50 of 3 nM. Then `CC(C)(C)NC(=O)C1CCN(Cc2cccc(NC(=O)Cc3c(F)cccc3Cl)c2)CC1` [Example 1.247], with 2 nM; and `CC(C)(C)NC(=O)C1CCN(Cc2cccc(NC(=O)Cc3ccc(F)cc3Cl)c2)CC1` [Example 1.248], with 2 nM.

`CC(C)(C)NC(=O)C1CCN(Cc2cccc(NC(=O)Cc3cccc(C(F)(F)F)c3Cl)c2)CC1` [Example 1.249] showed an EC50 of 2 nM.

With `CC(C)(C)NC(=O)C1CCN(Cc2cccc(NC(=O)Cc3c(Cl)ccc(C(F)(F)F)c3Cl)c2)CC1` [Example 1.250], it took 3 nM to reach a half-maximal effect (EC50). Under `CC(C)(C)NC(=O)C1CCN(Cc2cccc(NC(=O)Cc3c(C(F)(F)F)ccc(Cl)c3Cl)c2)CC1` [Example 1.251] stands 3 nM. Under `CC(C)(C)NC(=O)C1CCN(Cc2cccc(NC(=O)Cc3cc(F)c(Cl)cc3Cl)c2)CC1` [Example 1.252] stands 4 nM.
